The nature of one data set: Oral bioavailability. Particulars: in vivo.
Data set [1] deals with SMARCA2/SMARCA4 dual loss NSCLC cell line xenografts. The experiment in a line: NSCLC xenograft model in vivo. Conditions: ~250 mg/kg body weight.

This passage reports oral bioavailability, tumor growth inhibition and tumor regression results from US20220175771A1, “CANCER TREATMENT MODALITIES” (priority 2017, published 2022).

For `CCN(c1cc(-c2ccc(CN3CCOCC3)cc2)cc(C(=O)NCc2c(C)cc(C)[nH]c2=O)c1C)C1CCOCC1` [Compound 44, tazemetostat], the oral bioavailability result in “Oral bioavailability” was “orally bioavailable”. In addition, the tumor growth inhibition result in data set [1] (dual loss xenografts compared with SMARCA4 single loss xenografts) was “more prominent”. Moreover, in data set [1] (in two of the four SMARCA2/SMARCA4 dual loss cell lines), the tumor regression result is recorded as “tumor regression was observed”.
